Measured values taken from US7365231B2, “Compound with antitumor activity and preparation method therefor” (National Taiwan University of Science & Technology, priority 2005, dated 2008).

Key:
Assay in all cases: NCI panel growth inhibition, sulforhodamine B
Type in all cases: cell-based
NCI-H226 = conditions: Homo sapiens; NCI-H226, NSCLC; drug for last 48 h of 72 h
Excerpt: (§1) Comparison of anticancer activities of the 1,3-substituted adamantane derivatives, 1,3-bis(4-aminophenyl)adamantane (1,3-DPANH2), 1,3-bis(4-(4-aminophenoxy)phenyl)adamantane (1,3-DPAONH2), 1,3-bis(4-(4-amino-3-hydroxy)phenyl)adamantane (1,3-DPA/OH/NH2) and 1,3-bis(4-(4-amino-2-trifluoromethylphenoxy)phenyl)adamantane (1,3-DPA/CF3/NH2) as shown in FIG. 1 were synthesized in the present invention. Those compounds were submitted to the National Cancer Institute for anticancer assay in culture against a standard panel of cell lines. […] To further confirm that the different substituents (CF3 and OH) on the phenyl ring of 1,3-DPAONH2 affect the growth inhibition of cancer cells. […] The transformations of 1,3-DPAONH2 to 1,3-DPA/OH/NH2 led to a remarked enhancement of anticancer activity toward all the tested cancer lines. The role of the OH group at the ortho position of the NH2 on growth inhibition is remarkable. In addition, one compound (1,3-DPA/OH/NH2) was confirmed to have an IC50 of <1 μM against one of the cells (BT-549 breast carcinoma). Comparison of anticancer activities of 1,3-substituted diaminophenyladamantane derivatives, the following order of potency against the tested cancer lines was observed: 1,3-DPA/OH/NH2>1,3-DPAONH2>1,3-DPANH2>1,3-DPA/CF3/NH2.

K-562 = conditions: Homo sapiens, K562; K-562, Leukemia; drug for last 48 h of 72 h
Excerpt: as §1

MDA-MB-231 = conditions: Homo sapiens; MDA-MB-231, Breast cancer; drug for last 48 h of 72 h
Excerpt: as §1

HL-60(TB) = conditions: Homo sapiens, Leukemia, drug for last 48 h of 72 h
Excerpt: as §1

EKVX = conditions: Homo sapiens, NSCLC, drug for last 48 h of 72 h
Excerpt: as §1

A498 = conditions: Homo sapiens; A498, Renal cancer; drug for last 48 h of 72 h
Excerpt: as §1

OVCAR-4 = conditions: Homo sapiens; OVCAR-4, Ovarian cancer; drug for last 48 h of 72 h
Excerpt: as §1

SW-620 = conditions: Homo sapiens; SW-620, Colon cancer; drug for last 48 h of 72 h
Excerpt: as §1

SN12C = conditions: Homo sapiens, Renal cancer, drug for last 48 h of 72 h
Excerpt: as §1

TK-10 = conditions: Homo sapiens; TK-10, Renal cancer; drug for last 48 h of 72 h
Excerpt: as §1

HCT-116 = conditions: Homo sapiens; HCT-116, Colon cancer; drug for last 48 h of 72 h
Excerpt: as §1

A549/ATCC = conditions: Homo sapiens, NSCLC, drug for last 48 h of 72 h
Excerpt: as §1

ACHN = conditions: Homo sapiens, Renal cancer, drug for last 48 h of 72 h
Excerpt: as §1

SNB-19 = conditions: Homo sapiens; SNB-19, CNS cancer; drug for last 48 h of 72 h
Excerpt: as §1

M14 = conditions: Homo sapiens; M14, Melanoma; drug for last 48 h of 72 h
Excerpt: as §1

786-0 = conditions: Homo sapiens; 786-0, Renal cancer; drug for last 48 h of 72 h
Excerpt: as §1

UACC-257 = conditions: Homo sapiens; UACC-257, Melanoma; drug for last 48 h of 72 h
Excerpt: as §1

PC-3 = conditions: Homo sapiens; PC-3, Prostate cancer; drug for last 48 h of 72 h
Excerpt: as §1

SF-268 = conditions: Homo sapiens; SF-268, CNS cancer; drug for last 48 h of 72 h
Excerpt: as §1

MDA-N = conditions: Homo sapiens, Breast cancer, drug for last 48 h of 72 h
Excerpt: as §1

NCI-H522 = conditions: Homo sapiens; NCI-H522, NSCLC; drug for last 48 h of 72 h
Excerpt: as §1

SK-MEL-28 = conditions: Homo sapiens; SK-MEL-28, Melanoma; drug for last 48 h of 72 h
Excerpt: as §1

CAKI-1 = conditions: Homo sapiens; CAKI-1, Renal cancer; drug for last 48 h of 72 h
Excerpt: as §1

UACC-62 = conditions: Homo sapiens; UACC-62, Melanoma; drug for last 48 h of 72 h
Excerpt: as §1

COLO 205 = conditions: Homo sapiens; COLO 205, Colon cancer; drug for last 48 h of 72 h
Excerpt: as §1

KM12 = conditions: Homo sapiens, KM12, KM12, Colon cancer; drug for last 48 h of 72 h
Excerpt: as §1

IGROV1 = conditions: Homo sapiens, IGROV-1; IGROV1, Ovarian cancer; drug for last 48 h of 72 h
Excerpt: as §1

OVCAR-8 = conditions: Homo sapiens; OVCAR-8, Ovarian cancer; drug for last 48 h of 72 h
Excerpt: as §1

CCRF-CEM = conditions: Homo sapiens, Leukemia, drug for last 48 h of 72 h
Excerpt: as §1

MCF-7 = conditions: Homo sapiens, MCF7; MCF-7, Breast cancer; drug for last 48 h of 72 h
Excerpt: as §1

NCI-H23 = conditions: Homo sapiens; NCI-H23, NSCLC; drug for last 48 h of 72 h
Excerpt: as §1

SMILES | IC50 (NCI-H226) | IC50 (K-562) | IC50 (MDA-MB-231) | IC50 (HL-60(TB)) | IC50 (EKVX) | IC50 (A498) | IC50 (OVCAR-4) | IC50 (SW-620) | IC50 (SN12C) | IC50 (TK-10) | IC50 (HCT-116) | IC50 (A549/ATCC) | IC50 (ACHN) | IC50 (SNB-19) | IC50 (M14) | IC50 (786-0) | IC50 (UACC-257) | IC50 (PC-3) | IC50 (SF-268) | IC50 (MDA-N) | further results
Nc1ccc(Oc2ccc(C34CC5CC(C3)CC(c3ccc(Oc6ccc(N)cc6)cc3)(C5)C4)cc2)cc1 [1,3-DPAONH2, 1,3-bis(4-(4-aminophenoxy)phenyl)adamantane] | 23.2 µM | 7.08 µM | 16.9 µM | 17.1 µM | 15.6 µM | 18 µM | 6.98 µM | 6.52 µM | 5.76 µM | 24.9 µM | 5.65 µM | 10.3 µM | 11.7 µM | 8.66 µM | 9.62 µM | 8.09 µM | 12.5 µM | 11.5 µM | 5.6 µM | 4.33 µM | IC50 (NCI-H522): 13.3 µM; IC50 (SK-MEL-28): 18.8 µM; IC50 (CAKI-1): 12.1 µM; IC50 (UACC-62): 9.64 µM; IC50 (COLO 205): 13.3 µM; IC50 (KM12): 4.07 µM; IC50 (IGROV1): 2.64 µM; IC50 (OVCAR-8): 4.82 µM; IC50 (CCRF-CEM): 4.83 µM; IC50 (MCF-7): 2.89 µM; IC50 (NCI-H23): 6.92 µM
Nc1ccc(Oc2ccc(C3(c4ccc(Oc5ccc(N)cc5)cc4)C4CC5CC(C4)CC3C5)cc2)cc1 [2,2-DPAONH2, 2,2-bis(4-(4-aminophenoxy)phenyl)adamantane] | 21.4 µM | 3.89 µM | 17 µM | 5 µM | 4.76 µM | 2.91 µM | 6.96 µM | 5.03 µM | 3.65 µM | 14.3 µM | 2.71 µM | 3.38 µM | 13.4 µM | 10.1 µM | 2.28 µM | 3.07 µM | 5.76 µM | 6.75 µM | 6.44 µM | 2.74 µM | IC50 (NCI-H522): 4.28 µM; IC50 (SK-MEL-28): 10.5 µM; IC50 (CAKI-1): 11.1 µM; IC50 (UACC-62): 17.7 µM; IC50 (COLO 205): 2.71 µM; IC50 (KM12): 3.55 µM; IC50 (IGROV1): 5.88 µM; IC50 (OVCAR-8): 5.82 µM; IC50 (CCRF-CEM): 3.03 µM; IC50 (MCF-7): 3.81 µM; IC50 (NCI-H23): 5.15 µM
Nc1ccc(Oc2ccc(C34CC5CC(C3)CC(c3ccc(Oc6ccc(N)cc6C(F)(F)F)cc3)(C5)C4)cc2)c(C(F)(F)F)c1 [1,3-DPA/CF3/NH2, 1,3-bis-(4-(4-amino-2-trifluoromethylphenoxy)phenyl)adamantane] | 19.4 µM | 43.9 µM | 15.2 µM | 24.2 µM | 15.4 µM | 18.3 µM | 36.6 µM | 36.3 µM | 31.1 µM | 16.1 µM | 24.9 µM | 19 µM | 32.9 µM | 22.5 µM | 16.9 µM | 31.5 µM | 18.7 µM | 14.8 µM | 17.4 µM | 36.7 µM | IC50 (NCI-H522): 14.4 µM; IC50 (SK-MEL-28): 43.2 µM; IC50 (CAKI-1): 28.1 µM; IC50 (UACC-62): 22.1 µM; IC50 (COLO 205): 19.1 µM; IC50 (KM12): 21 µM; IC50 (IGROV1): 19.5 µM; IC50 (OVCAR-8): 16 µM; IC50 (CCRF-CEM): 36.2 µM; IC50 (MCF-7): 13.4 µM; IC50 (NCI-H23): 17.7 µM
